Type in all cases: in vivo
The nature of test [1]: Experiment 6 sensory evaluation of cyclic dipeptides, “top sharp saltiness”. Put shortly:
(§1)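 Reduced-sodium curry roux (44 g in 300 g hot water) was spiked with cyclic dipeptide solutions matching heat-treated coriander or paprika levels, at 0.5% or 1.0% (w/w) final. Three evaluators scored each sample against unspiked reduced-sodium and common roux. Mean scores were graded F to AA.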

A short description of test [2]: Experiment 6 sensory evaluation of cyclic dipeptides, “middle fullness (enhanced thickness)”. In a few lines: as §1
Test [3] is described as follows: Experiment 6 sensory evaluation of cyclic dipeptides, “boosting of last flavor (aftertaste)”. In a few lines:
as §1

The mark [4] stands for this setting: Additive amount coriander 0.5% (heat-treated coriander equivalent aqueous solution, final 0.5% (w/w)), reduced-sodium curry roux.
Setting [5] is: Additive amount coriander 0.5%, reduced-sodium curry roux.
The mark [6] stands for this setting: heat-treated coriander equivalent aqueous solution of cyclic dipeptide, final 1.0% (w/w) in reduced-sodium curry roux dispersion.
Where [7] appears, read: heat-treated coriander equivalent aqueous solution of cyclic dipeptide, final 1.0% (w/w) in reduced-sodium curry roux dispersion, 3 evaluators.
The mark [8] stands for this setting: Additive amount paprika 0.5% (heat-treated paprika equivalent aqueous solution, final 0.5% (w/w)), reduced-sodium curry roux.
The mark [9] stands for this setting: Additive amount paprika 0.5%, reduced-sodium curry roux.
The mark [10] stands for this setting: heat-treated paprika equivalent aqueous solution of cyclic dipeptide, final 1.0% (w/w) in reduced-sodium curry roux dispersion.
[11] abbreviates: heat-treated paprika equivalent aqueous solution of cyclic dipeptide, final 1.0% (w/w) in reduced-sodium curry roux dispersion, 3 evaluators.

cyclic (Pro-Pro) [Coriander ID 18]: the “Top sharp saltiness Average” value in test [1] (setting [4]) worked out at 2.2 points; in test [1] (setting [7]) it was 2.3 points. In addition, the “Top sharp saltiness Evaluation” value in test [1] (setting [5]) was “B (“B” when it was 2.0 or higher and 2.5 or lower)”; in test [1] (setting [6]), “B (“B” when it was 2.0 or higher and 2.5 or lower)”. Moreover, the “Middle fullness Average” value was 2.5 points in test [2] (setting [5]) and 2.7 points in test [2] (setting [7]). For the same substance, the “Middle fullness Evaluation” value is “B (“B” when it was 2.0 or higher and 2.5 or lower)” in test [2] (setting [5]); “A (“A” when it was 2.6 or higher and 2.9 or lower)” in test [2] (setting [6]). Moreover, the “Bosting of last flavor Average” value in test [3] (setting [5]) is given as 2.3 points; in test [3] (setting [7]), 2.5 points. The “Bosting of last flavor Evaluation” value in test [3] (setting [5]) is “B (“B” when it was 2.0 or higher and 2.5 or lower)”; in test [3] (setting [6]), “B (“B” when it was 2.0 or higher and 2.5 or lower)”.

On to cyclic (Pro-Tyr) [Coriander ID 31], for which the figures for the “Top sharp saltiness Average” value in test [1] (setting [4]) and in test [1] (setting [7]) were 2.5 points and 2.0 points, respectively. In addition, the “Top sharp saltiness Evaluation” value is “B (“B” when it was 2.0 or higher and 2.5 or lower)” in test [1] (setting [5]); “B (“B” when it was 2.0 or higher and 2.5 or lower)” in test [1] (setting [6]). Also, the “Middle fullness Average” value in test [2] (setting [5]) worked out at 2.5 points; in test [2] (setting [7]), 2.0 points. Further, the “Middle fullness Evaluation” value in test [2] (setting [5]) was “B (“B” when it was 2.0 or higher and 2.5 or lower)”; in test [2] (setting [6]) it was “B (“B” when it was 2.0 or higher and 2.5 or lower)”. Also, the entries for the “Bosting of last flavor Average” value in test [3] (setting [5]) and in test [3] (setting [7]) were 2.5 points and 2.0 points, respectively. The “Bosting of last flavor Evaluation” value in test [3] (setting [5]) is “B (“B” when it was 2.0 or higher and 2.5 or lower)”; in test [3] (setting [6]), “B (“B” when it was 2.0 or higher and 2.5 or lower)”.

Turning to cyclic (Thr-Leu/Ile) [Coriander ID 3], the “Top sharp saltiness Average” value was 2.0 points in test [1] (setting [8]) and 1.7 points in test [1] (setting [11]). The “Top sharp saltiness Evaluation” value was “B (“B” when it was 2.0 or higher and 2.5 or lower)” in test [1] (setting [9]); “C (“C” when it was 1.1 or higher and 1.9 or lower)” in test [1] (setting [10]). Also, the “Middle fullness Average” value in test [2] (setting [9]) was 2.5 points; in test [2] (setting [11]), 2.2 points. Also, the “Middle fullness Evaluation” value is “B (“B” when it was 2.0 or higher and 2.5 or lower)” in test [2] (setting [9]); “B (“B” when it was 2.0 or higher and 2.5 or lower)” in test [2] (setting [10]). Moreover, the “Bosting of last flavor Average” value came to 3.0 points in test [3] (setting [9]) and 1.7 points in test [3] (setting [11]). The “Bosting of last flavor Evaluation” value is “AA (“AA” when it was 3.0 or higher)” in test [3] (setting [9]); “C (“C” when it was 1.1 or higher and 1.9 or lower)” in test [3] (setting [10]).

For cyclic (Tyr-Asp), the “Top sharp saltiness Average” value amounted to 2.1 points in test [1] (setting [8]) and 2.5 points in test [1] (setting [11]). Further, the “Top sharp saltiness Evaluation” value in test [1] (setting [9]) is “B (“B” when it was 2.0 or higher and 2.5 or lower)”; in test [1] (setting [10]), “B (“B” when it was 2.0 or higher and 2.5 or lower)”. The “Middle fullness Average” value was 2.1 points in test [2] (setting [9]) and 2.8 points in test [2] (setting [11]). Also, the “Middle fullness Evaluation” value was “B (“B” when it was 2.0 or higher and 2.5 or lower)” in test [2] (setting [9]); “A (“A” when it was 2.6 or higher and 2.9 or lower)” in test [2] (setting [10]). Besides, the “Bosting of last flavor Average” value in test [3] (setting [9]) stood at 2.1 points; in test [3] (setting [11]), 2.8 points. The “Bosting of last flavor Evaluation” value in test [3] (setting [9]) was “B (“B” when it was 2.0 or higher and 2.5 or lower)”; in test [3] (setting [10]), “A (“A” when it was 2.6 or higher and 2.9 or lower)”.

(Values after patent publication US20260231994A1, “TASTE-ENHANCING COMPOSITION, METHOD FOR PRODUCING SAME, FOOD PRODUCT, AND METHOD FOR ENHANCING TASTE OF FOOD PRODUCT” (HOUSE FOODS GROUP INC., priority 2023, published 2026).)
